What was measured:
[1] = molecular target: T1, A431 cells EGFR-TK phosphorylation stimulated by EGF (Homo sapiens, UniProt P00533); assay: Inhibition of cellular EGFR-TK phosphorylation stimulated by EGF in A431 cells; assay type: cell-based; conditions: for inhibition at 3 µM: A-431, concentration of 3 μM, A431 cells, EGF stimulated, one-time measurement at a single concentration (preliminary selection), NA = No activity, read-out: Inhibition Percent (%)
T1 construct: against A431 cells EGFR-TK; endogenous in cells; host or cells: A431 cells
T1 sequence (P00533 25-1210): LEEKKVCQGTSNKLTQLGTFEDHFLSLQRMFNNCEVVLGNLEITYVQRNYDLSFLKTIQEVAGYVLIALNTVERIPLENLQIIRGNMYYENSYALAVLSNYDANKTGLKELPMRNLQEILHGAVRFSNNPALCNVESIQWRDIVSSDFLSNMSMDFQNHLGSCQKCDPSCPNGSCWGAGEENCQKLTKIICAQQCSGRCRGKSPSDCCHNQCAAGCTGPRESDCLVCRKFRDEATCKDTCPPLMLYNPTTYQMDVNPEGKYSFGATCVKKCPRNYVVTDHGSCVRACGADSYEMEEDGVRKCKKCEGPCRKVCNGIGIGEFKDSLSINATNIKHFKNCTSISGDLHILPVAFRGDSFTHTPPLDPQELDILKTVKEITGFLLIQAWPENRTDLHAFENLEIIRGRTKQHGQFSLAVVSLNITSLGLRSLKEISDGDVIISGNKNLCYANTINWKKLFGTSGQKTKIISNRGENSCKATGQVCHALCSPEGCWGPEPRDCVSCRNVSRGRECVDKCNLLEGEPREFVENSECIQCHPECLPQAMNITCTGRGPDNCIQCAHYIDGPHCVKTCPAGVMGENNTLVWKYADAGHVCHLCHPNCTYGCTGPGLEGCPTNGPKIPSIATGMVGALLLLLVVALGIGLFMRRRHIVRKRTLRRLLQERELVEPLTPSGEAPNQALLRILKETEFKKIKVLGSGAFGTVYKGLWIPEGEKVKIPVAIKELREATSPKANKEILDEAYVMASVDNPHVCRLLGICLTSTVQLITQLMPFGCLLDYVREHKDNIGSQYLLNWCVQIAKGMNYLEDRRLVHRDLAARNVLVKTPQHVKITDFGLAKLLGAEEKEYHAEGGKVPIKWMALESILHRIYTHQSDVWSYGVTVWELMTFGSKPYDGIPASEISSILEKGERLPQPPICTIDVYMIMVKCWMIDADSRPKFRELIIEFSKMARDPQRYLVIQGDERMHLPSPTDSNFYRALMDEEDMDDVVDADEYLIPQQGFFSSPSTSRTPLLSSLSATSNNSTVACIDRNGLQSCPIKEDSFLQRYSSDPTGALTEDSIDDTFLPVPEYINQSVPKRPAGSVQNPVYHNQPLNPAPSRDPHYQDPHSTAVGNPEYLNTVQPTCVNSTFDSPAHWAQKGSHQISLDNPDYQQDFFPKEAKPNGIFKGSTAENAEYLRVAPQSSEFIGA
Description: Inhibition Experiment of Cellular Epidermal Growth Factor Receptor Tyrosine Kinase
1) A431 cells were cultured in a medium which was prepared by adding 10% FCS into another medium comprising 50% DMEM and 50% F12.
2) A431 cells grown in six-well plates were cultured in a serum-free medium for 24 hours. During the 24 hour period the medium was replenished once after 12 hours.
3) A solution containing a compound to be assessed was added the A431 cells and the cells were cultured for 2 hours, supplemented twice by a medium free of the compound, and then EGF (100 ng/well) was added, and cultured for 5 minutes.
4) A431 cell homogenate was prepared by Laemili buffer which comprised 2% sodium dodecyl sulfonate (SDS), 5% 2-mercaptoethanol, 10% glycerol and 5 mM Tris (pH 6.8).
(§1) 5) The A431 cell homogenate was heated for 5 minutes at 100° C.
6) Proteins in the A431 cell homogenates were separated by PAGE and transferred onto a nitrocellulose membrane, and an infrared reading was obtained.

[2] = molecular target: T2, BT474 cells Her-2 receptor TK phosphorylation stimulated by Her-2 (Homo sapiens, UniProt P04626); assay: Inhibition of BT474 cells Her-2 receptor TK phosphorylation; assay type: cell-based
T2 construct: against BT474 cells; endogenous in cells; host or cells: BT474 cells
T2 sequence (P04626 23-1255): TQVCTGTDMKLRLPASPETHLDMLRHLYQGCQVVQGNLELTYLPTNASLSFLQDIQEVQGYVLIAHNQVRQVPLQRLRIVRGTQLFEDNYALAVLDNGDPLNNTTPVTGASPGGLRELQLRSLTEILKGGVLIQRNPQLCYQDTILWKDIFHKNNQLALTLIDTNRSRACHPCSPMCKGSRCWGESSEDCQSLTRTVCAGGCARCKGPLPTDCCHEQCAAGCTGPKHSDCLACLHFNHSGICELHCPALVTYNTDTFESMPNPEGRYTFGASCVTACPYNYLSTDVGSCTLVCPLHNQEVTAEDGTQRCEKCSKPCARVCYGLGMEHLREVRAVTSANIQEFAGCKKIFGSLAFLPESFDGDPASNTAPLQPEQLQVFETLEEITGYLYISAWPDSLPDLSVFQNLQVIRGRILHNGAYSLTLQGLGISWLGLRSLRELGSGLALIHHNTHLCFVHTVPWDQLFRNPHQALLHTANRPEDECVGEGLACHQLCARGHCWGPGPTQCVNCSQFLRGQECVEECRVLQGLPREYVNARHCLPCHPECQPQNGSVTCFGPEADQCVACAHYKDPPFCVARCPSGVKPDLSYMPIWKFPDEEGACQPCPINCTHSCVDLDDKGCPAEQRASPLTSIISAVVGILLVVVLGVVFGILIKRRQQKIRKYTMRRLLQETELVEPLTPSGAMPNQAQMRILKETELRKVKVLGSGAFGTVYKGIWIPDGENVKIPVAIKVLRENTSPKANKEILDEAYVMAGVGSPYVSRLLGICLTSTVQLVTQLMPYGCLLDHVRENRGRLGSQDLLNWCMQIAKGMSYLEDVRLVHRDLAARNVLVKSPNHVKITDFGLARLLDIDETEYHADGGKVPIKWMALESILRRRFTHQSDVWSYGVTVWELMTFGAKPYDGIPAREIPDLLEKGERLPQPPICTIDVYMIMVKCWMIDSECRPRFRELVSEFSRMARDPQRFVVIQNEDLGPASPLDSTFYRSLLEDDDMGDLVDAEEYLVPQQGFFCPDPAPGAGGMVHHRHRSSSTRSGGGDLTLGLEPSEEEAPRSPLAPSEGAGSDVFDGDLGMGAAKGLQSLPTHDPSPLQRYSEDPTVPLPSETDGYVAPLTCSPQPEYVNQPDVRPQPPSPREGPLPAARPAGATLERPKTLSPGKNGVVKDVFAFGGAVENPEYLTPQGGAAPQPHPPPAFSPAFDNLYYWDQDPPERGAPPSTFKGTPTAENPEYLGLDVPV
Description: Following literature procedured, inhibitory activity of representative compounds against BT474 cells Her-2 receptor TK phosphorylation stimulated by Her-2 was measured, and partial results are listed in Table 6.

A431 cells [3] = assay: Cell growth inhibition assay (MTS assay), A431; assay type: cell-based; conditions: Homo sapiens
[4] = tested on: colorectal cancer LoVo cells; assay: Cell growth inhibition assay (MTS assay), LoVo; assay type: cell-based; conditions: Homo sapiens, 48 hours
BT474 cells [5] = assay: Cell growth inhibition assay (MTS assay), BT474; conditions: Homo sapiens, BT-474, 48 h, read-out: Growth inhibition activity (EC50) BT474
Description: (§2) Cell Growth Inhibition Assay (MTS Assay)
(§3) A431: human epithelial adenocarcinoma cell strain; LoVo: human colorectal cancer cell strain; BT474: breast cancer; SK-Br-3: breast cancer; SIT solution (SIGMA); RPMI1640 culture solution; phosphoric acid buffer; Dimethyl Sulphoxide (DMSO); MTS solution (Promega), 96 well cell culture plate, representative anti-cancer compounds.
(§4) The cells were cultured overnight under the condition of 5% CO2 and 37° C. The next day, representative anti-cancer compounds (between 3 and 10 mM) were dissolved by dimethyl sulphoxide (DMSO) as a mother solution. Adriamycin was used as positive control, DMSO was used as negative control. According to experimental design, the mother solution was diluted and added to the 96 well cell culture plate, cultured for 48 hours under the condition of 5% CO2 and 37° C. Subsequently, 20 μL of MTS solution was added to each well of the 96 well cell culture plate and cultured for another 2 to 4 hours under the condition of 5% CO2 and 37° C. Absorbance was read at 490 nm wavelength, and converted into cell survival rate.
(§5) For each concentration, there two measurements were taken and the average was obtained.

SK-Br-3 cells = assay: Cell growth inhibition assay (MTS assay), SK-Br-3; conditions: Homo sapiens, SK-BR-3, 48 h, read-out: Growth inhibition activity (EC50) SK-Br-3
Description: as §2, §3, §4, §5

[6] = molecular target: T1, A431 cells EGFR-TK phosphorylation stimulated by EGF; assay: Irreversible inhibition of cellular EGFR-TK (A431 cells, inhibition and recovery); assay type: cell-based; conditions: for Inhibition percent(%): A431 cells, 2 hours with compound, supplemented twice by compound-free medium, then EGF; for Activity (irreversible or reversible inhibitor): A431 cellular model test
Description: Irreversible Inhibition of Cellular Epidermal Growth Factor Receptor Tyrosine Kinase (EGFR-TK)
1) A431 cells were cultured in a medium prepared by adding 10% FCS into another medium comprising 50% DMEM and 50% F12.
2) The A431 cells grown in six-well plates were cultured in a serum-free medium for 24 hours, during the period the medium was replenished once after 12 hours.
3) A solution containing a compound to be assessed was added to the A431 cells and cultured for 2 hours, supplemented twice by a medium free of the compound, and then EGF (100 ng/well) was added, and cultured for 5 minutes.
4) A431 cell homogenate was prepared by Laemili buffer which comprised 2% sodium dodecyl sulfonate (SDS), 5% 2-mercaptoethanol, 10% glycerol and 5 mM Tris; the pH value is 6.8.
as §1
6) Proteins in the A431 cell homogenates were separated by PAGE, transferred onto a nitrocellulose membrane, and an infrared reading was obtained.

A431 cells [7] = assay: A431 cell growth inhibition assay (MTT assay); assay type: cell-based; conditions: Homo sapiens
Outline: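 A431 epidermoid carcinoma cells in DMEM/F12 (1:1) with 10% FBS were seeded at 2.5×10^4 cells/mL, attached overnight, then exposed to compound (final 10 μM to 1.52 nM) for 72 h at 37° C, 5% CO2. Viability was read by MTT (0.5 mg/mL, 4 h), formazan dissolved in DMSO, absorbance 490 nm.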

BT474 cells [8] = assay: BT-474 cell growth inhibition assay (SRB assay); assay type: cell-based; conditions: Homo sapiens, concentration of 3 μM, 72 h, read-out: Inhibition Percent (%)
Description: BT-474 Cell Growth Inhibition Assay (SRB Assay)
BT-474 human breast cancer cell lines were kindly provided by Dr. Changnian Liu, Pharmaron Beijing Co., Ltd.
BT-474 cells were cultured in 37° C., 5% CO2, saturated humidity until logarithmic phase. Discarded culture medium, washed cells once by PBS. Added 1 ml Trypsin/EDTA solution, stood at 37° C. for 5 min, allowed the cells to detach. Added culture medium, adjusted the cells density to 1×10^5 cells/ml.
Day 0, added 100 μl/well cells suspension to 96-well cell culture plates. Incubated overnight to let the cells attach completely.
Day 1, compounds (2 mM in DMSO as stock solution) was diluted to 20 μM in EMEM. Then a fourfold serial dilution was made. These diluted compounds were made as 10× reaction solutions, and the concentration of DMSO was kept at 1%.
Added 80 μl culture medium and 20 μl 10× compound reaction solution to the testing wells, or vehicle control to the control wells. Co-incubated cells with compounds for another 72 h.
Day 3, fixed cellular protein by the addition of 100 μl/well of 10% TCA (diluting from 50% TCA) at 4° C. for 1 h. Rinsed TCA using plate washer, and washed five times using distilled water. Removed the residual wash solution with a piece of absorbent paper. Added 100 μl/well 0.4% SRB solution, allowed a 15-30 min staining period. Removed the SRB, and washed the culture plates five times using 1% acetic acid. Removed the residual wash solution with a piece of absorbent paper. Air-dried the culture plates, dissolved the protein-bound dye with 100 μl/well of 10 mM Tris base solution. Shook the plates until the dye was dissolved completely.

[9] = A-431, A431 cells, MTS, 48 hours, read-out: Growth inhibition activity EC50
[10] = A431 cells EGFR-TK phosphorylation stimulated by EGF (Table 4)
[11] = A431 cells EGFR-TK phosphorylation stimulated by EGF (Table 5)

Row | Compound | inhibition at 3 µM [1] [%] | EC50 [2] [nM] | EC50 (A431 cells [3]; [9]) [µM] | EC50 [4] [nM] | EC50 (BT474 cells [5]) [nM] | EC50 (SK-Br-3 cells) [nM] | other results
1 | COc1cc2ncnc(Nc3ccc(F)c(Cl)c3)c2cc1NC(=O)C=C1CCNCC1 [Example 43, N-(4-(3-chloro-4-fluorophenylamino)-7-methoxyquinazolin-6-yl)-2-(piperidin-4-ylidene)acetamide] | 91 | 350 | 0.11 | 1500 | 610 | 520 | –
2 | COCCN1CCC(=CC(=O)Nc2cc3c(Nc4ccc(F)c(Cl)c4)ncnc3cc2OC)CC1 [Example 73, N-(4-(3-chloro-4-fluorophenylamino)-7-methoxyquinazolin-6-yl)-2-(1-(2-methoxyethyl)piperidin-4-ylidene)acetamide] | 82 | 1700 | 0.63 | 8000 | 21500 | 2310 | –
3 | COc1cccc2c1C(=O)c1c(O)c3c(c(O)c1C2=O)C[C@@](O)(C(=O)CO)C[C@@H]3O[C@H]1C[C@H](N)[C@H](O)[C@H](C)O1 [Adriamycin, reference compound] | – | – | – | 1500 | – | – | –
4 | CS(=O)(=O)CCNCc1ccc(-c2ccc3ncnc(Nc4ccc(OCc5cccc(F)c5)c(Cl)c4)c3c2)o1 [Lapatinib, reference compound] | – | – | – | – | 120 | 70 | EC50 (A431 cells [3]; A-431, 48 h, read-out: Growth inhibition activity EC50 (μM)): 1.19 µM
5 | O=C(C=C1CCNCC1)Nc1ccc2ncnc(Nc3ccc(F)c(Cl)c3)c2c1 [Example 32, N-(4-(3-chloro-4-fluorophenylamino)quinazolin-6-yl)-2-(piperidin-4-ylidene)acetamide] | 87 | – | 0.6 | – | – | – | EC50 [1, 10]: 90 nM; EC50 [1, 11]: 90 nM; Inhibition percent(%) [6]: 78%; Activity (irreversible or reversible inhibitor) [6]: Irreversible inhibitor
6 | CCOc1cc2ncc(C#N)c(Nc3ccc(F)c(Cl)c3)c2cc1NC(=O)C=C1CCNCC1 [Example 150, N-(4-(3-chloro-4-fluorophenylamino)-3-cyano-7-ethoxyquinolin-6-yl)-2-(piperidin-4-ylidene)acetamide] | 46 | 260 | – | – | – | – | EC50 (A431 cells [7]; A-431, 72 hours (Table 11)): 170 nM; inhibition at 3 µM (A431 cells [7]; A-431, concentration of 3 μM, 72 hours, read-out: Inhibition Percent (%)): 95%; inhibition at 3 µM (BT474 cells [8]): 56%
7 | CCOc1cc2ncc(C#N)c(Nc3cccc(Br)c3)c2cc1NC(=O)C=C1CCNCC1 [Example 154, N-(4-(3-bromophenylamino)-3-cyano-7-ethoxyquinolin-6-yl)-2-(piperidin-4-ylidene)acetamide] | – | – | 0.11 | 3100 | – | – | –
8 | O=C(C=C1CCNCC1)Nc1ccc2ncnc(Nc3cccc(Br)c3)c2c1 [Example 33, N-(4-(3-bromophenylamino)quinazolin-6-yl)-2-(piperidin-4-ylidene)acetamide] | 94 | – | 0.1 | – | – | – | EC50 [1, 10]: 38 nM; EC50 [1, 11]: 38 nM; Inhibition percent(%) [6]: 89%; Activity (irreversible or reversible inhibitor) [6]: Irreversible inhibitor
9 | COc1cc2ncnc(Nc3ccc(OCc4cccc(F)c4)c(Cl)c3)c2cc1NC(=O)C=C1CCNCC1 [Example 105, N-(4-(4-(3-fluorobenzyloxy)-3-chlorophenylamino)-7-methoxyquinazolin-6-yl)-2-(piperidin-4-ylidene)acetamide] | 44 | 480 | – | – | – | – | –
10 | C#Cc1cccc(Nc2ncnc3cc(OC)c(NC(=O)C=C4CCN(C)CC4)cc23)c1 [Example 51, N-(4-(3-ethynylphenylamino)-7-methoxyquinazolin-6-yl)-2-(1-methylpiperidin-4-ylidene)acetamide] | 94 | – | 0.12 | 7600 | – | – | –
11 | COc1cc2ncnc(Nc3ccc(F)c(Cl)c3)c2cc1NC(=O)C=C1CCN(C)CC1 [Example 72, N-(4-(3-chloro-4-fluorophenylamino)-7-methoxyquinazolin-6-yl)-2-(1-methylpiperidin-4-ylidene)acetamide] | 97 | 820 | 0.09 | 1800 | 1310 | 800 | –
12 | C#Cc1cccc(Nc2ncnc3cc(OC)c(NC(=O)C=C4CCNCC4)cc23)c1 [Example 42, N-(4-(3-ethynylphenylamino)-7-methoxyquinazolin-6-yl)-2-(piperidin-4-ylidene)acetamide] | – | – | 0.12 | 3000 | – | – | –
13 | COc1cc2ncnc(Nc3cccc(Br)c3)c2cc1NC(=O)C=C1CCNCC1 [Example 38, N-(4-(3-bromophenylamino)-7-methoxyquinazolin-6-yl)-2-(piperidin-4-ylidene)acetamide] | 94 | – | 0.014 | 1600 | – | – | –
14 | COc1cc2ncnc(Nc3ccc(OCc4ccccn4)c(Cl)c3)c2cc1NC(=O)C=C1CCNCC1 [Example 108, N-(4-(3-chloro-4-(pyridin-2-ylmethoxy)phenylamino)-7-methoxyquinazolin-6-yl)-2-(piperidin-4-ylidene)acetamide] | – | 180 | 3 | 7000 | 1570 | 530 | –
